Nine compounds from patent US20210170000A1, “Larval preparation of Heligmosomoides polygyrus bakeri as well as methods of making it and uses thereof” (Helmholtz Zentrum München Deutsches Forschungszentrum für …, priority 2018, published 2021) can be followed below.

One test has as its system human MDM. In words: HpbE- or Hpb GDH-treated human MDM with inhibitors or neutralizing antibodies. Type of test: cell-based. An excerpt:
In order to identify immuneregulatory proteins present in HpbE, the inventors fractionated the extract by size exclusion chromatography and identified active fractions (8-11) based on the capacity to induce the COX metabolite TXB2 as well as IL-10 (FIGS. 4C and 4D). The inventors then identified proteins present in active and non-active fractions by mass spectrometry, thus highlighting Hpb glutamate dehydrogenase (GDH) as a major immuneregulatory candidate, which was uniquely present in active fractions of HpbE (summarized in FIG. 4E). In addition, an inhibitor of GDH (Bithionol), which is also used as an anti-helminthic, reduced the HpbE-triggered induction of PGE2 and IL-10 (FIG. 4F).
As a new tool for studying the uptake, localization and function of Hpb GDH in vivo and in target cells in vitro, we generated monoclonal antibodies (mABs) specific for Hpb GDH (i.e. not cross-reactive with mammalian (human/mouse) GDH) (FIG. 5). Clone 4F8 was selected as the best candidate for further sub cloning and for testing in neutralization experiments. […]
As HIF-1α is positively regulated by the p38 MAPK, the inventors studied the involvement of p38 signaling in the induction of type 2-suppressive mediators by HpbE. In human MDM, p38 was phosphorylated upon treatment with HpbE, correlating with the induction of COX-2 (FIG. 11A) and a p38 inhibitor (VX-702) abrogated the induction of IL-10, IL-1R and PGE2-synthetic enzymes (PTGS2 and PTGES) (FIG. 11B to D). In line with HIF-1α dependent regulation in murine BMDM, a pharmacological inhibitor of HIF-1α (acriflavine) attenuated the HpbE-induced expression of IL-10, IL-1β and COX pathway enzymes in human MDM (FIG. 11B to D). However, p38 and HIF-1α were not responsible for the modulation of the 5-LOX pathway (FIG. 11D).
(§1) Monocyte-derived macrophages (MDM) or bone marrow derived macrophages (BMDM) were generated by culture in the presence of human or murine recombinant GM-CSF (10 ng/ml) (Miltenyi Biotech) and human recombinant TGF-β1 (2 ng/ml) (Peprotech) as previously described (Esser-von Bieren et al. (2013), PLoS Pathog., 9:e1003771; Dietz et al. (2016), J. Allergy Clin Immunol, 139(4):1343-1354.e6). On day 6, cells were harvested and used for further experiments.
(§2) Eicosanoids were quantified by liquid chromatography tandem mass spectrometry (LC-MS/MS) similar to a previously published method (Henkel et al. (2018); Allergy, doi:10.1111/a11.13700). Cytokines were quantified using commercially available multiplex assays or ELISA kits according to the manufacturer's instructions.

A further test concerns human granulocytes. In words: Granulocyte chemotaxis (trans-well) towards nasal polyp secretions. As to conditions: for reduction of granulocyte chemotaxis in response to nasal polyp secretions: cells from AERD patients (n=6) and healthy controls (n=3), fluticasone propionate 1 μM, Montelukast 10 μM. Type of test: cell-based. As to the method: Granulocyte recruitment (induced by chemokines or nasal polyp secretions) was assessed with or without pre-treatment with Hpb proteins by using trans-well assays. Migrated granulocytes were enumerated microscopically and by flow cytometry.
PMN were resuspended to a concentration of 1×10^6 cells/ml in the presence of 100 ng/ml human GM-CSF (Miltenyi Biotech) and overnight stimulated with 10 μg/ml HpbE. When mentioned, PMN were pre-treated with 1 μM fluticasone propionate (Sigma-Aldrich), 10 μM montelukast (Cayman Chemical) or conditioned media from MDM stimulated overnight with 10 μg/ml Hpb extract+/−100 μM Indomethacin for 1 hour. PMN migration in response to nasal polyp secretions or a chemokine cocktail of 2 ng/ml RANTES, 20 ng/ml IL-8 (Miltenyi Biotech) and 2 ng/ml LTB4 (Cayman Chemical) was tested. Chemoattractants were placed in the lower wells of a chemotaxis plate (3 μm pore size; Corning). After mounting the transwell unit, […] PMN were added to the top of each well and migration was allowed for 3 hours at 37° C., 5% CO2. The number of cells migrating to the lower well was counted microscopically. In some experiments, manual counting was validated by flow cytometry.

Test [1] relates to human monocyte derived macrophages (MDM). In words: Mediator (eicosanoid, cytokine) production by human monocyte derived macrophages. Type of test: cell-based. The procedure: (§3) Human polymorphonuclear leukocytes (PMN) or peripheral blood mononuclear cells (PBMC) were isolated from the peripheral blood from healthy controls or patients suffering from AERD using density gradient centrifugation. For some experiments, cells were further separated into monocytes (CD14^+), neutrophils (CD16^+) or eosinophils. CD14^+ monocytes were differentiated into macrophages by culture for 6-8 days in the presence of GM-CSF and TGFbl. In most experiments, cells were treated with Hpb proteins at a concentration of 10 μg protein/ml.
(§4) Mediator analysis in cell supernatants (+/−Hpb proteins) was performed by immunoassay for individual mediators (e.g. LTs, PGE2 or IL-10) or LC-MS/MS or Multiplex cytokine analysis for overall mediator profiles.
In order to study the effect of Hpb proteins on human macrophages, human monocyte derived macrophages (MDM) were stimulated with A23187 after 16 hrs. treatment with helminth proteins (e.g., total somatic homogenate of Hpb L3 larvae).
(§5) Human monocyte derived macrophages (MDM) were isolated, cultured and stimulated as described herein, e.g. in Example 3.
(§6) Eicosanoids or cytokines were quantified by LC-MS/MS or immunoassays as described herein, e.g. in Example 3.
as §1, §2

In the next test the test system is MDM from AERD patients. In words: Eicosanoid production by MDM from AERD patients. Type of test: cell-based, human.
Description: To validate the efficacy of HpbE in a relevant therapeutic indication, the inventors generated MDM from AERD patients and studied the effects of HpbE and FP on the mediator output.
as §5, §6

In the next test the test system is human granulocytes (PMN). The test is described as follows: Mediator production by human granulocytes (PMN). Type of test: cell-based. The procedure:
as §3, §4
Hpb proteins (e.g., total somatic homogenate of Hpb L3 larvae) broadly modulate mediator profiles of human myeloid cells.
as §2

Setting [2] is: purified recombinant His-tagged protein.

With `CC(C)(C)c1ccc(S(=O)(=O)/C=C/C#N)cc1` [BAY 11-7085], the “PGE2, IL-10 and IL-1β production as well as gene expression of PGE2-synthetic enzymes and IL-10” value with human MDM (HpbE-treated human MDM, inhibition of NFκβ, 5 μM) is reported as “significantly reduced”.

For `Oc1c(Cl)cc(Cl)cc1Sc1cc(Cl)cc(Cl)c1O` [Bithionol], in the test on human MDM (inhibitor of GDH, 20 μM), the “HpbE-triggered induction of PGE2 and IL-10” value is “reduced”. With `CS(=O)(=O)c1ccc(-c2noc(C(F)(F)F)c2-c2ccccc2)cc1` [CAY10404], in the test with human MDM (COX inhibitors), the “HpbE-triggered COX-2 expression” value is on record as “reduced” and the “suppression of the 5-LOX pathway” value is “remained largely unaffected”.

For the compound `CC(C)(O)c1ccccc1CC[C@@H](SCC1(CC(=O)O)CC1)c1cccc(/C=C/c2ccc3ccc(Cl)cc3n2)c1` [Montelukast], the “reduction of granulocyte chemotaxis in response to nasal polyp secretions” value in the test on human granulocytes is 10%. Turning to `NC(=O)c1ccc(N(C(N)=O)c2c(F)cccc2F)nc1-c1ccc(F)cc1F` [VX-702], in the test on human MDM (p38 inhibitor), the “induction of IL-10, IL-1R and PGE2-synthetic enzymes (PTGS2 and PTGES)” value is “abrogated”.

As for `CCC(=O)O[C@]1(C(=O)SCF)[C@H](C)C[C@H]2[C@@H]3C[C@H](F)C4=CC(=O)C=C[C@]4(C)[C@@]3(F)[C@@H](O)C[C@@]21C` [fluticasone propionate], in test [1] (weak induction of PGE2), the “eicosanoid output in MDM from healthy individuals” value was “only minor effects”. In the test with MDM from AERD patients, the “eicosanoid output of MDM from AERD patients” value was “no effects”. The “reduction of granulocyte chemotaxis in response to nasal polyp secretions” value with human granulocytes is recorded as “failed to reduce chemotactic responses”. In the test on human granulocytes (pre-treatment of AERD granulocytes), the “cell recruitment: migration of AERD patient granulocytes towards nasal polyp secretions ex vivo” value was “not achieved”. Further, the “pro-inflammatory arachidonic acid (AA) and linoleic acid (LA) metabolites” value with human granulocytes (PMN) is on record as “reduce”. Consider `COc1ccc2c(c1)c(CC(=O)O)c(C)n2C(=O)c1ccc(Cl)cc1` [indomethacin], for which, in the test on human MDM (COX inhibitors), the “HpbE-triggered COX-2 expression” value is “reduced” and the “suppression of the 5-LOX pathway” value was “remained largely unaffected”. For the same compound, the “induction of IL-10, IL-1β and PTGES” value with human MDM (COX inhibitors, CAY10404 10 μM) is given as “reduced”. Regarding “Recombinant Hpb GDH: Recombinant His-tagged Hpb glutamate dehydrogenase (UniProtKB A0A183FP08, SEQ ID NO: 1) expressed in E. coli”, in test [1] (setting [2]), the “PGE2 and IL-10 production by human macrophages” value was “induce”; the “generation of pro-inflammatory cysLTs by human macrophages” value is “reduce”. Consider acriflavine, for which the “HpbE-induced expression of IL-10, IL-1β and COX pathway enzymes” value in the test on human MDM (pharmacological inhibitor of HIF-1α) is “attenuated”.
